Test results taken from patent publication US9205091B2, “Diazeniumdiolated compounds, pharmaceutical compositions, and method of treating cancer” (The United States of America, as represented by the …, priority 2009, dated 2015).

How the values were obtained:
H1373 = test: CellTiter 96 MTT cell proliferation assay (Example 9); format: cell-based, human
Description: (§1) Cell lines derived from human non-small cell lung cancers are obtained from American Type Culture Collection (ATCC, Manassas, Va.), and are designated by their NCI numbers. Cells are maintained in RPMI 1640 medium (Gibco, Invitrogen, Carlsbad, Calif.), supplemented with 10% fetal calf serum (Gemini Bio-Products, Sacramento, Calif.), 100 U/mL penicillin/streptomycin, and 2 mM glutamine at 37° C. and 5% CO2.
(§2) For proliferation assays cells are seeded at 2×10^4/well in 96-well plates, allowed to adhere for 24 hrs, and then are treated with the drug or DMSO as a control for 48 hours. […] Compounds are prepared as 10 mM stock solution in dimethyl sulfoxide (Sigma, St. Louis, Mo.). Increasing drug concentrations in 10 μL of phosphate-buffered saline (PBS) are added to 100 μL of the culture medium and incubated at 37° C. for 72 h. The CellTiter 96 non-radioactive cell proliferation assay (MTT assay, Promega, Madison, Wis.), is performed according to the manufacturer's protocol. Each compound concentration is represented in six repeats, and the screening is performed as at least two independent experiments. IC50 values are calculated using Sigma Plot software (Systat Software).

H1703 = test: as above; format: cell-based, human
Description: as §1, §2

H1944 = test: as above; format: cell-based, human
Description: as §1, §2

H2122 = test: as above; format: cell-based, human
Description: as §1, §2

H441 = test: as above; format: cell-based, human
Description: as §1, §2

[1] = Rate of reaction with 4 mM glutathione (stability study, HPLC); format: physicochemical; details: for t½ (min) Mean (SE): 4 mM glutathione (GSH), aqueous pH 7.4 phosphate buffered saline, 37° C.; for half-life upon treatment with glutathione (GSH): in comparison with that of JS-K
Description: 490 μL of 2.25% Pluronic P123 in PBS is aliquoted into glass HPLC vials and maintained at 50° C. To this solution, 10 μL of 50 mM of compounds 6, 7, 9, and 11 in DMSO is added and maintained at 50° C. for 10 min. A glutathione stock solution (40 mM) is prepared in 0.1 M phosphate buffer pH 7.4. To 800 μL of 0.1 M phosphate buffer in a glass HPLC vial, 100 μL of glutathione stock solution and 100 μL of formulated prodrug are added. The disappearance of the compound is monitored using an Agilent 1100 series HPLC fitted with a C-18 reverse phase column (Phenomenex Luna 250×4.60 mm) operating at 300 nm and run isocratically with acetonitrile:water (75:25).

SAPK/JNK and p38 = test: Tiron pre-treatment before JS-36-25, stress kinase phosphorylation; format: cell-based, human; details: 10 mM Tiron 1 hour, then 30 minutes 1 μM JS-36-25
Description: Immunoblotting: For protein immunoblotting the cells are harvested in lysis buffer (25 mM Hepes buffer containing 150 mM NaCl, 10 mM MgCl2, 1% Nonidet P40, 0.25% sodium deoxycholate, 10% glycerol, 2.5 mM EDTA, supplemented with Complete proteinase inhibitors cocktail (Behringer). Cell extracts are resolved by SDS-polyacrylamide gel electrophoresis (4-12% Bis-Tris gels or 3-8% Tris-acetate gels, Invitrogen Life Technologies, Carlsbad, Calif.) then immunoblotted to PVDF membrane (Invitrogen). Antibodies to phospho-ATM, Phospho-ATR, cleaved caspases 3 and 7, phospho-SAPK/JNK and SAPK/JNK, phospho-ATF2, phospho-p38 and p38, phospho-c-jun and c-jun, and PARP are purchased from Cell Signaling Technology (Danvers, Mass.). Anti-ATF3 polyclonal antibodies are from Santa Cruz Biotechnology (Santa Cruz, Calif.). […] The cells are pre-treated for 1 hour with 10 mM Tiron, followed by 30 minutes incubation with 1 μM of JS-36-25. In the Tiron-treated cells phosphorylation of both SAPK/JNK and p38 by JS-36-25 is diminished in comparison with JS-36-25-only treated cells (FIG. 3C).

H1703 cell line = test: Tiron protection against JS-K toxicity; format: cell-based, human
H1703 cells = test: H1703 xenograft in athymic NCr-nu/nu mice, tumor weights (Example 10); format: in vivo; details: 8 micromols/kg i.v., three times a week for three weeks
Description: H1703 cells are harvested at 80% confluence, washed with PBS, and suspended in PBS. The cells are injected at 5×10^6 s.c. into a flank of 7-week-old female athymic NCr-nu/nu mice (Charles River). […] Animals are treated three times a week for three weeks with i.v. tail vein injections of either vehicle (2.25% P-123 in PBS) or 1 or 2 (6 micromols/kg in the vehicle) or 6 (8 micromols/kg). Body weights are taken before each drug injection. Animals are sacrificed two hours after the last drug injection and the tumors are excised and weighed. There are 13-15 mice/group at termination. The non-parametric Mann-Whitney test is utilized for statistical comparisons of tumor weights.

[2] = test system: lung adenocarcinoma cells (cell line H441); test: Proliferation of lung adenocarcinoma cells, JS-59-4 with olaparib (FIG. 2); format: cell-based, human; details: combination with the PARP inhibitor olaparib, in comparison to JS-59-4 alone
Description: FIG. 2 is a bar graph showing a synergistic effect of the administration of JS-59-4 with the PARP inhibitor olaparib in the inhibition of proliferation of lung adenocarcinoma cells (cell line H441). The white bar represents the control (i.e., no treatment). The light gray bar represents the administration of JS-59-4 alone (0.75 μM). The dark gray bar represents the administration of JS-59-4 alone (1 μM). The diagonally hatched bar represents the administration of olaparib alone (5 μM). The cross hatched bar represents the administration of olaparib alone (10 μM). The light gray diagonally gray bar represents the co-administration of JS-59-4 (0.75 μM) and olaparib (5 μM). The dark gray diagonally hatched bar represents the co-administration of JS-59-4 (1 μM) and olaparib (5 μM). The light gray cross hatched gray bar represents the co-administration of JS-59-4 (0.75 μM) and olaparib (10 μM). The dark gray cross hatched bar represents the co-administration of JS-59-4 (1 μM) and olaparib (10 μM).

IC50 (H1373) [µM]	IC50 (H1703) [µM]	IC50 (H1944) [µM]	IC50 (H2122) [µM]	IC50 (H441) [µM]	t½ (min) Mean (SE) [1]	SAPK/JNK and p38 phosphorylation by JS-36-25 (SAPK/JNK and p38)	half-life upon treatment with glutathione (GSH) [1]	SMILES	effect on JS-K toxicity (H1703 cell line)	H1703 tumor growth in vivo (H1703 cells)	antiproliferative activity of the combination [2]
							prolonged half-life	CCOC(=O)N1CCN(/[N+]([O-])=N/Oc2ccc(C#N)cc2[N+](=O)[O-])CC1 [JS-59-131]			
							prolonged half-life	CCOC(=O)N1CCN(/[N+]([O-])=N/Oc2ccc([N+](=O)[O-])cc2C#N)CC1 [JS-59-4]			significantly enhanced antiproliferative activity

More lines, now with the values behind:

SMILES	IC50 (H1373) [µM]	IC50 (H1703) [µM]	IC50 (H1944) [µM]	IC50 (H2122) [µM]	IC50 (H441) [µM]	t½ (min) Mean (SE) [1]	SAPK/JNK and p38 phosphorylation by JS-36-25 (SAPK/JNK and p38)	half-life upon treatment with glutathione (GSH) [1]	effect on JS-K toxicity (H1703 cell line)	H1703 tumor growth in vivo (H1703 cells)	antiproliferative activity of the combination [2]
CCOC(=O)N1CCCN(/[N+]([O-])=N/Oc2cc(C)c([N+](=O)[O-])cc2[N+](=O)[O-])CC1 [Compound 7, O^2-(2,4-dinitrophenyl-5-methyl) 1-[(4-ethoxycarbonyl)homopiperazin-1-yl]diazen-1-ium-1,2-diolate]	3	1.66	> 10	10	2.02	25.7 (1.0) min					
O=S(=O)(O)c1cc(O)c(O)c(S(=O)(=O)O)c1 [Tiron]							significantly reduces		protective effect		
CCOC(=O)N1CCCN(/[N+]([O-])=N/Oc2cc(OC)c([N+](=O)[O-])cc2[N+](=O)[O-])CC1 [Compound 11, O^2-(2,4-dinitrophenyl-5-methoxy) 1-[(4-ethoxycarbonyl)homopiperazin-1-yl]diazen-1-ium-1,2-diolate]	3.08	1.82	> 10	10	3.15	59.6 (4.2) min					
CCOC(=O)N1CCN(/[N+]([O-])=N/Oc2cc(C)c([N+](=O)[O-])cc2[N+](=O)[O-])CC1 [Compound 6, O^2-(2,4-dinitrophenyl-5-methyl) 1-[(4-ethoxycarbonyl)piperazin-1-yl]diazen-1-ium-1,2-diolate]	1.86	0.97	> 10	7	1.61	71.5 (4.3) min				did not result in reduction	
CCOC(=O)N1CCN(/[N+]([O-])=N/Oc2cc(OC)c([N+](=O)[O-])cc2[N+](=O)[O-])CC1 [Compound 9, O^2-(2,4-dinitrophenyl-5-methoxy) 1-[(4-ethoxycarbonyl)piperazin-1-yl]diazen-1-ium-1,2-diolate]	2.1	1.57	> 10	5.78	2.5	38.6 (2.8) min					
